# Measurements published in PubChem BioAssay (NCI).
#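 GI50: concentration for 50% inhibition of growth. The concentration for full growth arrest is given as TGI.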
# How the values were obtained:
# Assay in all cases: growth of human tumour cells (NCI), 384-well format
# SK-OV-3 ovarian = tested on: SK-OV-3 ovarian
# HS 578T breast = tested on: HS 578T breast
# COLO 205 colon = tested on: COLO 205 colon
# MCF7 breast = tested on: MCF7 breast
# SF-268 CNS = tested on: SF-268 CNS
# SK-MEL-5 melanoma = tested on: SK-MEL-5 melanoma
# OVCAR-3 ovarian = tested on: OVCAR-3 ovarian
# LOX IMVI melanoma = tested on: LOX IMVI melanoma
# CAKI-1 renal = tested on: CAKI-1 renal
# MDA-MB-435 melanoma = tested on: MDA-MB-435 melanoma
# U251 glioblastoma = tested on: U251 glioblastoma
# RXF 393 renal = tested on: RXF 393 renal
# UO-31 renal = tested on: UO-31 renal
compound,measurement,setting,value
C[C@@H]1CN(CC(=O)N2CC(C)(C)c3nc(CO)c(Cc4ccc(F)cc4)cc32)[C@@H](CN2CCOC[C@H]2C)CN1,GI50,SK-OV-3 ovarian,< 0.0207 µM
same,TGI,SK-OV-3 ovarian,4.32 µM
same,GI50,HS 578T breast,7.75 µM
same,TGI,HS 578T breast,> 67.2 µM
same,GI50,COLO 205 colon,20.5 µM
same,TGI,COLO 205 colon,47 µM
same,GI50,MCF7 breast,35.2 µM
same,TGI,MCF7 breast,79.5 µM
same,GI50,SF-268 CNS,38.6 µM
same,TGI,SF-268 CNS,> 74.7 µM
same,GI50,SK-MEL-5 melanoma,1.41 µM
same,TGI,SK-MEL-5 melanoma,20.2 µM
same,GI50,OVCAR-3 ovarian,42.5 µM
same,TGI,OVCAR-3 ovarian,> 83.1 µM
same,GI50,LOX IMVI melanoma,17.6 µM
same,TGI,LOX IMVI melanoma,31.5 µM
same,GI50,CAKI-1 renal,27.9 µM
same,TGI,CAKI-1 renal,54 µM
same,GI50,MDA-MB-435 melanoma,47 µM
same,TGI,MDA-MB-435 melanoma,> 100 µM
same,GI50,U251 glioblastoma,28.1 µM
same,TGI,U251 glioblastoma,62.4 µM
same,GI50,RXF 393 renal,0.175 µM
same,TGI,RXF 393 renal,6.79 µM
same,GI50,UO-31 renal,39.6 µM
same,TGI,UO-31 renal,> 100 µM
